Here are results for 13 compounds from US12673975B2, “Cyclic peptide, cell scaffold material, cell separating material, and medium” (FUJIFILM Corporation, priority 2019, dated 2026).

Read-outs that look alike come from different tables or passages of the source. Starred links: 1 amine or outer side, 2 acyl side, 3 side chain; linkers in the order of their positions; H or OH if unused. Positions of bridges follow the written chain, without caps; N, C: chain ends. Non-standard residues stand in square brackets, D forms with d. Residues, ends and D or L forms follow the SMILES beside them. hCys = N[C@@H](CCS)C(=O)O; Dab = NCC[C@H](N)C(=O)O; X2 = O=C(C[*:1])[*:2] A value given as a limit tells only on which side of the number the result lay.

The target in data set [1] is human integrin αvβ5 (Homo sapiens, UniProt P06756+P18084). Briefly: Evaluation of integrin binding property (surface plasmon resonance, Biacore 3000, immobilized cyclic peptide). The procedure, abridged: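 SPR with cyclic peptide amine-coupled via EDC/NHS to a CM5 chip, blank channel as reference. Integrin αvβ5 at 30, 100, 300 and 1,000 nM injected 10 min at 25 °C in HEPES buffer pH 7.4 with 5 mM MgCl2, 30 min buffer flow, EDTA regeneration; Kd from reference-subtracted signals, graded by category.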
In general terms: In SPR one partner is held on a chip, and binding of the other changes the refractive index at the surface.

The nature of data set [2]: Evaluation of molecule stability (alkali treatment, residual rate by LC/MS). Format: physicochemical. The note with it: for Performance evaluation: Stability (residual rate of cyclic peptide after alkali treatment): 500 μM peptide aqueous solution plus equivalent of 1 M sodium hydroxide, 15° C., 3 hours, LC/MS peak area; for Stability (molecule stability, residual rate of the cyclic peptide rank): alkali treatment, residual rate by LC/MS. In outline: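 500 μM aqueous cyclic peptide mixed with an equal volume of 1 M NaOH and held 3 h at 15 °C. Residual rate is total LC/MS peak area after treatment relative to untreated (100%), using a C18 column, pH 3 ammonium formate/acetonitrile gradient, 45 °C, ESI±.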

[3] abbreviates: SPR, 25° C., HEPES buffer with 5 mM magnesium chloride, integrin 30-1,000 nM, read-out: Performance evaluation: Binding activity (dissociation constant between the cyclic peptide and human integrin αvβ5).
The mark [4] stands for this setting: surface plasmon resonance, immobilized cyclic peptide, human integrin αvβ5, read-out: Binding activity (integrin binding property, dissociation constant rank).

human integrin αvβ5, sequence (P06756 31-1048): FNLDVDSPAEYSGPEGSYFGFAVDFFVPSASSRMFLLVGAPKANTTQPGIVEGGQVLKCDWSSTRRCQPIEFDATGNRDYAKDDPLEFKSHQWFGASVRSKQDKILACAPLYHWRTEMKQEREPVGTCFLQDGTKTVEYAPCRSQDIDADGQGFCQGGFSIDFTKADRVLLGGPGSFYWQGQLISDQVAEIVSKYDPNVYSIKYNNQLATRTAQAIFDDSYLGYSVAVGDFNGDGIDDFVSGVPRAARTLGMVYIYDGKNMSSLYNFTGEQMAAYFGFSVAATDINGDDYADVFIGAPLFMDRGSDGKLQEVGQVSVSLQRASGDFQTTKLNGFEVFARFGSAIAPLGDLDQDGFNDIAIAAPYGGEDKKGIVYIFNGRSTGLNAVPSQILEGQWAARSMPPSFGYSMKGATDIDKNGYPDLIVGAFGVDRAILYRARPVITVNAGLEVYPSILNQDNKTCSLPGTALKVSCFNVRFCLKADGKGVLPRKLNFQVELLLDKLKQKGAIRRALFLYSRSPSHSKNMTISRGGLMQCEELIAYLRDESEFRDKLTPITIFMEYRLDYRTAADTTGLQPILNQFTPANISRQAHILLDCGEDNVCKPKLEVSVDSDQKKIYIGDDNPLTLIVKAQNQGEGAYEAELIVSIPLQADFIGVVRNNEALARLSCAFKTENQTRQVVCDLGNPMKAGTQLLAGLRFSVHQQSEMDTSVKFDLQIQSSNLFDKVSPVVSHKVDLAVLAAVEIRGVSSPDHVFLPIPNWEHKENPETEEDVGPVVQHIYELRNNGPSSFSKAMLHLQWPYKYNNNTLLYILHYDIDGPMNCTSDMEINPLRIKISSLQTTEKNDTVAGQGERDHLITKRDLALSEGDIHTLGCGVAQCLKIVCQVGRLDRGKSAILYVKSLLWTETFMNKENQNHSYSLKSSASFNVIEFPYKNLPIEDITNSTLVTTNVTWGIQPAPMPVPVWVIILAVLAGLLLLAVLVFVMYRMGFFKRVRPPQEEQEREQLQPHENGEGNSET
human integrin αvβ5, sequence (P18084 24-799): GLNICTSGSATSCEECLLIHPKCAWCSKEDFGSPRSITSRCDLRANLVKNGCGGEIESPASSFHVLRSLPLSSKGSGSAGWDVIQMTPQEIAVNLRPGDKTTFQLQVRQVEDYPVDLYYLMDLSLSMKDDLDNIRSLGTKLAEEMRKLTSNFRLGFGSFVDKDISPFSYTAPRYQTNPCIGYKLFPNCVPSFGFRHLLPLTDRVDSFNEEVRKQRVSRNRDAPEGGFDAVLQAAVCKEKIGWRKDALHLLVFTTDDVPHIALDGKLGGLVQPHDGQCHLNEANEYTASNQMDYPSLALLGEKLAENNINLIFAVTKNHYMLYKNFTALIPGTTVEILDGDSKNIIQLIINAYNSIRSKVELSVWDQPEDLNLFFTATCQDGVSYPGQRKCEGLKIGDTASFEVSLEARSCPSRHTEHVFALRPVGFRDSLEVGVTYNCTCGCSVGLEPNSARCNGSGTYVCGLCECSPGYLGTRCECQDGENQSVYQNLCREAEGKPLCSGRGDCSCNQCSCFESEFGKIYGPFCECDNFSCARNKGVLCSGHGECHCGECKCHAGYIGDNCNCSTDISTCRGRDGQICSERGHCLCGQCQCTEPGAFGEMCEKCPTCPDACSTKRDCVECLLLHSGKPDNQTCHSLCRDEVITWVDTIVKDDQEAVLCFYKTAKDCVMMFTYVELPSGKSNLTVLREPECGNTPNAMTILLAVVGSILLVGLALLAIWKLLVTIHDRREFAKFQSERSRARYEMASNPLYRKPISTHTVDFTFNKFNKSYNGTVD

`CC[C@H](C)[C@@H]1NC(=O)[C@@H](NC(=O)[C@H](C)NC(=O)[C@H](CCCCN)NC(=O)[C@H](CCCCN)NC(=O)[C@@H](N)CCCCN)CCSCC(=O)NCC[C@@H](C(=O)N[C@@H](C)C(=O)O)NC(=O)[C@H](C)NC(=O)[C@H](Cc2ccccc2)NC(=O)[C@H](CO)NC(=O)[C@H](CC(=O)O)NC(=O)CNC(=O)[C@H](CCCNC(=N)N)NC(=O)[C@@H]2CCCN2C1=O` [Cyclic peptide 92, KKKA-(Hcy)-IPRGDSFA(Dab(acetyl))A] (H-KKKA[hCys]IPRGDSFA[Dab]A-OH; linker 5-14 via X2): the Kd in data set [1] (setting [3]) is under 50 nM. For the same compound, in data set [2], the “Performance evaluation: Stability (residual rate of cyclic peptide after alkali treatment)” value is “A (The residual rate of the cyclic peptide is 70% or more.)”.
Consider `CC[C@H](C)[C@@H]1NC(=O)[C@@H](NC(=O)[C@H](C)NC(=O)[C@H](CCCCN)NC(=O)[C@H](CCCCN)NC(=O)[C@@H](N)CCCCN)CCSCC(=O)NCC[C@@H](C(=O)NCC(=O)O)NC(=O)[C@H](C)NC(=O)[C@H](Cc2ccccc2)NC(=O)[C@H](CO)NC(=O)[C@H](CC(=O)O)NC(=O)CNC(=O)[C@H](CCCNC(=N)N)NC(=O)[C@@H]2CCCN2C1=O` [Cyclic peptide 93, KKKA-(Hcy)-IPRGDSFA(Dab(acetyl))G] (H-KKKA[hCys]IPRGDSFA[Dab]G-OH; linker 5-14 via X2), for which, in data set [1] (setting [3]), the Kd was under 50 nM. In addition, the “Performance evaluation: Stability (residual rate of cyclic peptide after alkali treatment)” value in data set [2] is on record as “A (The residual rate of the cyclic peptide is 70% or more.)”.
Take `CC[C@H](C)[C@@H]1NC(=O)[C@@H](NC(=O)CNC(=O)[C@H](CCCCN)NC(=O)[C@H](CCCCN)NC(=O)[C@@H](N)CCCCN)CCSCC(=O)NCC[C@@H](C(=O)N[C@@H](C)C(=O)O)NC(=O)[C@H](C)NC(=O)[C@H](Cc2ccccc2)NC(=O)[C@H](CO)NC(=O)[C@H](CC(=O)O)NC(=O)CNC(=O)[C@H](CCCNC(=N)N)NC(=O)[C@@H]2CCCN2C1=O` [Cyclic peptide 94, KKKG-(Hcy)-IPRGDSFA(Dab(acetyl))A] (H-KKKG[hCys]IPRGDSFA[Dab]A-OH; linker 5-14 via X2): the Kd in data set [1] (setting [3]) is under 50 nM. Further, in data set [2], the “Performance evaluation: Stability (residual rate of cyclic peptide after alkali treatment)” value is “A (The residual rate of the cyclic peptide is 70% or more.)”.
As for `CC[C@H](C)[C@@H]1NC(=O)[C@@H](NC(=O)CNC(=O)[C@H](CCCCN)NC(=O)[C@H](CCCCN)NC(=O)[C@@H](N)CCCCN)CCSCC(=O)NCC[C@@H](C(=O)NCC(=O)O)NC(=O)[C@H](C)NC(=O)[C@H](Cc2ccccc2)NC(=O)[C@H](CO)NC(=O)[C@H](CC(=O)O)NC(=O)CNC(=O)[C@H](CCCNC(=N)N)NC(=O)[C@@H]2CCCN2C1=O` [Cyclic peptide 95, KKKG-(Hcy)-IPRGDSFA(Dab(acetyl))G] (H-KKKG[hCys]IPRGDSFA[Dab]G-OH; linker 5-14 via X2), the Kd in data set [1] (setting [3]) is under 50 nM. In data set [2], the “Performance evaluation: Stability (residual rate of cyclic peptide after alkali treatment)” value is recorded as “A (The residual rate of the cyclic peptide is 70% or more.)”.
Regarding `CC(C)[C@@H]1NC(=O)[C@@H](NC(=O)[C@H](C)NC(=O)[C@H](CCCCN)NC(=O)[C@H](CCCCN)NC(=O)[C@@H](N)CCCCN)CCSCC(=O)NCC[C@@H](C(=O)N[C@@H](C)C(=O)O)NC(=O)[C@H](C)NC(=O)[C@H](Cc2ccccc2)NC(=O)[C@H](CO)NC(=O)[C@H](CC(=O)O)NC(=O)CNC(=O)[C@H](CCCNC(=N)N)NC(=O)[C@@H]2CCCN2C1=O` [Cyclic peptide 96, KKKA-(Hcy)-VPRGDSFA(Dab(acetyl))A] (H-KKKA[hCys]VPRGDSFA[Dab]A-OH; linker 5-14 via X2), the Kd in data set [1] (setting [3]) is under 50 nM. For the same compound, the “Performance evaluation: Stability (residual rate of cyclic peptide after alkali treatment)” value in data set [2] was “A (The residual rate of the cyclic peptide is 70% or more.)”.
On to `CC(C)[C@@H]1NC(=O)[C@@H](NC(=O)[C@H](C)NC(=O)[C@H](CCCCN)NC(=O)[C@H](CCCCN)NC(=O)[C@@H](N)CCCCN)CCSCC(=O)NCC[C@@H](C(=O)NCC(=O)O)NC(=O)[C@H](C)NC(=O)[C@H](Cc2ccccc2)NC(=O)[C@H](CO)NC(=O)[C@H](CC(=O)O)NC(=O)CNC(=O)[C@H](CCCNC(=N)N)NC(=O)[C@@H]2CCCN2C1=O` [Cyclic peptide 97, KKKA-(Hcy)-VPRGDSFA(Dab(acetyl))G] (H-KKKA[hCys]VPRGDSFA[Dab]G-OH; linker 5-14 via X2), for which the Kd in data set [1] (setting [3]) is under 50 nM. The “Performance evaluation: Stability (residual rate of cyclic peptide after alkali treatment)” value in data set [2] is given as “A (The residual rate of the cyclic peptide is 70% or more.)”.
Take `CC(C)[C@@H]1NC(=O)[C@@H](NC(=O)CNC(=O)[C@H](CCCCN)NC(=O)[C@H](CCCCN)NC(=O)[C@@H](N)CCCCN)CCSCC(=O)NCC[C@@H](C(=O)N[C@@H](C)C(=O)O)NC(=O)[C@H](C)NC(=O)[C@H](Cc2ccccc2)NC(=O)[C@H](CO)NC(=O)[C@H](CC(=O)O)NC(=O)CNC(=O)[C@H](CCCNC(=N)N)NC(=O)[C@@H]2CCCN2C1=O` [Cyclic peptide 98, KKKG-(Hcy)-VPRGDSFA(Dab(acetyl))A] (H-KKKG[hCys]VPRGDSFA[Dab]A-OH; linker 5-14 via X2): in data set [1] (setting [3]), the Kd was under 50 nM. In data set [2], the “Performance evaluation: Stability (residual rate of cyclic peptide after alkali treatment)” value is “A (The residual rate of the cyclic peptide is 70% or more.)”.
The matching figures for `CC(C)[C@@H]1NC(=O)[C@@H](NC(=O)CNC(=O)[C@H](CCCCN)NC(=O)[C@H](CCCCN)NC(=O)[C@@H](N)CCCCN)CCSCC(=O)NCC[C@@H](C(=O)NCC(=O)O)NC(=O)[C@H](C)NC(=O)[C@H](Cc2ccccc2)NC(=O)[C@H](CO)NC(=O)[C@H](CC(=O)O)NC(=O)CNC(=O)[C@H](CCCNC(=N)N)NC(=O)[C@@H]2CCCN2C1=O` [Cyclic peptide 99, KKKG-(Hcy)-VPRGDSFA(Dab(acetyl))G] (H-KKKG[hCys]VPRGDSFA[Dab]G-OH; linker 5-14 via X2): under 50 nM and “A (The residual rate of the cyclic peptide is 70% or more.)”.
Consider `CC[C@H](C)[C@@H]1NC(=O)[C@@H](NC(=O)[C@H](C)N)CCSCC(=O)NCC[C@@H](C(=O)N[C@@H](C)C(=O)N[C@@H](CCCCN)C(=O)N[C@@H](CCCCN)C(=O)N[C@@H](CCCCN)C(=O)O)NC(=O)[C@H](C)NC(=O)[C@H](Cc2ccccc2)NC(=O)[C@H](CO)NC(=O)[C@H](CC(=O)O)NC(=O)CNC(=O)[C@H](CCCNC(=N)N)NC(=O)[C@@H]2CCCN2C1=O` [Cyclic peptide 100, A-(Hcy)-IPRGDSFA(Dab(acetyl))AKKK] (H-A[hCys]IPRGDSFA[Dab]AKKK-OH; linker 2-11 via X2), for which the Kd in data set [1] (setting [3]) was under 50 nM. Further, the “Performance evaluation: Stability (residual rate of cyclic peptide after alkali treatment)” value in data set [2] is on record as “A (The residual rate of the cyclic peptide is 70% or more.)”.
On to `CC[C@H](C)[C@@H]1NC(=O)[C@@H](NC(=O)[C@H](CCCCN)NC(=O)[C@H](CCCCN)NC(=O)[C@@H](N)CCCCN)CCSCC(=O)NCC[C@@H](C(=O)O)NC(=O)[C@H](C)NC(=O)[C@H](Cc2ccccc2)NC(=O)[C@H](CO)NC(=O)[C@H](CC(=O)O)NC(=O)CNC(=O)[C@H](CCCNC(=N)N)NC(=O)[C@@H]2CCCN2C1=O` [Cyclic peptide 101, KKK-(Hcy)-IPRGDSFA(Dab(acetyl))] (H-KKK[hCys]IPRGDSFA[Dab]-OH; linker 4-13 via X2), for which the Kd in data set [1] (setting [4]) was under 50 nM. In data set [2], the “Stability (molecule stability, residual rate of the cyclic peptide rank)” value was “A (The residual rate of the cyclic peptide is 70% or more.)”.
For the compound `CC(C)[C@@H]1NC(=O)[C@@H](NC(=O)[C@H](CCCCN)NC(=O)[C@H](CCCCN)NC(=O)[C@@H](N)CCCCN)CCSCC(=O)NCC[C@@H](C(=O)O)NC(=O)[C@H](C)NC(=O)[C@H](Cc2ccccc2)NC(=O)[C@H](CO)NC(=O)[C@H](CC(=O)O)NC(=O)CNC(=O)[C@H](CCCNC(=N)N)NC(=O)[C@@H]2CCCN2C1=O` [Cyclic peptide 102, KKK-(Hcy)-VPRGDSFA(Dab(acetyl))] (H-KKK[hCys]VPRGDSFA[Dab]-OH; linker 4-13 via X2), the Kd in data set [1] (setting [4]) is under 50 nM. The “Stability (molecule stability, residual rate of the cyclic peptide rank)” value in data set [2] is “A (The residual rate of the cyclic peptide is 70% or more.)”.
`CC(C)[C@@H]1NC(=O)[C@@H](N)CCSCC(=O)NCC[C@@H](C(=O)N[C@@H](CCCCN)C(=O)N[C@@H](CCCCN)C(=O)N[C@@H](CCCCN)C(=O)O)NC(=O)[C@H](C)NC(=O)[C@H](Cc2ccccc2)NC(=O)[C@H]([C@@H](C)O)NC(=O)[C@H](CC(=O)O)NC(=O)CNC(=O)[C@H](CCCNC(=N)N)NC(=O)[C@@H]2CCCN2C1=O` [Cyclic peptide 103, (Hcy)-VPRGDTFA(Dab(acetyl))KKK] (H-[hCys]VPRGDTFA[Dab]KKK-OH; linker 1-10 via X2): the Kd in data set [1] (setting [4]) was under 50 nM. In addition, the “Stability (molecule stability, residual rate of the cyclic peptide rank)” value in data set [2] is “A (The residual rate of the cyclic peptide is 70% or more.)”.
`CC(C)[C@@H]1NC(=O)[C@@H](NC(=O)[C@H](CCCCN)NC(=O)[C@H](CCCCN)NC(=O)[C@@H](N)CCCCN)CCSCC(=O)NCC[C@@H](C(=O)O)NC(=O)[C@H](C)NC(=O)[C@H](Cc2ccccc2)NC(=O)[C@H]([C@@H](C)O)NC(=O)[C@H](CC(=O)O)NC(=O)CNC(=O)[C@H](CCCNC(=N)N)NC(=O)[C@@H]2CCCN2C1=O` [Cyclic peptide 104, KKK-(Hcy)-VPRGDTFA(Dab(acetyl))] (H-KKK[hCys]VPRGDTFA[Dab]-OH; linker 4-13 via X2): the Kd in data set [1] (setting [4]) is under 50 nM. Besides, in data set [2], the “Stability (molecule stability, residual rate of the cyclic peptide rank)” value is given as “A (The residual rate of the cyclic peptide is 70% or more.)”.
